The test concerns the target T1, KAT-II (kynurenine aminotransferase-II) (Homo sapiens, UniProt Q8N5Z0).
T1 construct: gene AADAT; recombinant KAT-II with a hexa-histidine tag, expressed in E. coli Rosetta 2
The test is described as follows: HPLC assay of kynurenic acid formation with purified recombinant enzyme. The test is classed as biochemical.

T1 sequence (Q8N5Z0 30-425): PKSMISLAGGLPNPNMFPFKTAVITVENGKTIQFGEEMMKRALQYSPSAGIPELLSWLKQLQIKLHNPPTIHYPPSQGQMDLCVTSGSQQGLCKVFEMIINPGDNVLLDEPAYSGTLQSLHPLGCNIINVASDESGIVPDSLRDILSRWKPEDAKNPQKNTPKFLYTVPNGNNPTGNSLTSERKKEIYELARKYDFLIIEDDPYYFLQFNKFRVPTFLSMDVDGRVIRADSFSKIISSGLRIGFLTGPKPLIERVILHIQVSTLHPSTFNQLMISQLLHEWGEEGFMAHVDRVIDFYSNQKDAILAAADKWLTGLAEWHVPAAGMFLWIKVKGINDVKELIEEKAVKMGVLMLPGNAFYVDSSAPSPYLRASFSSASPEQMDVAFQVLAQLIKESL

`NS(=O)(=O)c1ccc(N2C(=O)c3cc(Cl)c(Cl)cc3C2=O)cc1` [JN-01, 4-(5,6-dichloro-1,3-dioxo-1,3-dihydro-2H-isoindol-2-yl)benzenesulfonamide]: the half-maximal inhibitory concentration (IC50) was found to be 73.8 µM. To `NS(=O)(=O)c1ccc(CCN2C(=O)c3cc(Cl)c(Cl)cc3C2=O)cc1` [JN-02, 4-(5,6-dichloro-1,3-dioxo-1,3-dihydro-2H-isoindol-2-yl)ethyl benzenesulfonamide] belongs 113 µM.

One may read the IC50 as the concentration at which inhibition is half-maximal.

Source of the values: article PMC5915280, “Improvement of kynurenine aminotransferase-II inhibitors guided by mimicking sulfate esters” (PLoS ONE, 2018).
